# Key:
# septic rats = assay: Survival of septic rats (LPS 10 mg/kg i.p.) with and without linagliptin treatment; type: in vivo, female Wistar rats; settings: 24 hours after LPS 10 mg/kg i.p.; linagliptin diet from 2 days before LPS; LPS alone about 28%; p=0.015 LPS vs. LPS+Linagliptin; preliminary data
# Experimental: Animals are injected at day 2 with 10 mg/kg LPS (lipopolysaccharide) i.p. and observed for 4 additional days.
# It should be noted that the survival curve only represents preliminary data (“pseudo Kaplan-Meier-curve”) since the exact time point of death of the rats is not assessed. The female Wistar rats are injected with LPS in the morning, monitored during the day and transferred back to the stable in the evening. Deaths are registered in the morning of the next day.
# [1] = Mean plasma concentration of linagliptin in rats on linagliptin diet; type: in vivo; settings: diet containing 0.083 mg/kg linagliptin
# septic animals = settings: cited from earlier work
# [2] = Safety and tolerability in people with type 2 diabetes
# septic mice = assay: Survival in experimental sepsis, first study: LPS 20 mg/kg i.p. on Day 6 of 7 days treatment; settings: linagliptin 5 mg/kg/d in drinking water (p=0.067), liraglutide 0.2 mg/kg/d s.c. injection (p=0.005), placebo/LPS 100% die within 48 h
# [3] = Pharmacokinetics of BI 1356 after multiple oral doses (1, 2.5, 5 or 10 mg once daily for 12 days) in patients with type 2 diabetes
smiles,measurement,setting,value
CC#CCn1c(N2CCC[C@@H](N)C2)nc2c1c(=O)n(Cc1nc(C)c3ccccc3n1)c(=O)n2C [linagliptin],mortality,septic rats,No mortality
same,mean plasma concentration,[1],50 to 150 nM
same,"vascular dysfunction, vascular inflammation and aortic, cardiac and blood oxidative stress",septic animals; experimental sepsis model,"improves vascular dysfunction and vascular inflammation as well as aortic, cardiac, and blood oxidative stress"
same,immune cell infiltration into the vascular tissue,"septic animals; septic animals, previous studies",prevention of immune cell infiltration into the vascular tissue
same,safety and tolerability,[2],placebo-like
same,survival vs placebo/LPS group,septic mice,trend for a higher survival rate
same,form and route of excretion,"[3]; human, in vivo",primarily excreted unchanged via the bile
same,main organ of excretion,[3]; therapeutic oral dose levels,mainly excreted via the liver

# Source: patent publication US12312352B2, “Use of a DPP-4 inhibitor in SIRS and/or sepsis” (Boehringer ingelheim International GmbH, priority 2012, dated 2025)
